Here are results for 3 compounds from patent US7005517B2, “Paramagnetic metal-phthalocyanine complex compounds and contrast agent using the same” (priority 2001, dated 2006).

Data set [1] can be described thus: Light absorption test under X-ray irradiation. In kind it is physicochemical. The following applies: 2.45 mole concentration, X-ray irradiated, compared to Iron and Super-Iron. From the text: The compound of the present invention, GdPC-Fuxl-6, as obtained in Example 1, and the conventional X-ray contrast agents (Iron and Super-Iron) were spread onto the sticks respectively at 2.45 mole concentration, and X-ray was irradiated thereto for comparatively measuring the degree of light absorption.

Data set [2] in a line: Stability test for contrast agents in physiological saline (UV-spectrum, separation of metal ions). In kind it is physicochemical. The settings on record: 0.01M in 0.08% physiological saline, 50° C., 24 hours.
Data set [3] can be described thus: T1 & T2 measurements of contrast agents (proton relaxation times by NMR). Type of data set: physicochemical. The following applies: for T1 / T2: 0.005M in 0.08% physiological saline, 10% heavy water. How it is done: To these samples, 10% of heavy water was added to obtain a lock signal. As for the blank, 0.08% physiological saline solution was prepared. […] The respective RD values were set sufficiently high in order to eliminate their affects to the test results. […] The respective values of vd and vc as used were those values which were sufficient for parameter-fitting.

The nature of data set [4]: Comparative contrast imaging (spin-echo MRI) in mouse after abdominal administration of contrast agents. Type of data set: in vivo. The settings on record: 0.01M at 0.2 ml/10 g, scanned 40 minutes after administration, Set 1 and Set 2. On the procedure:
As for the samples for obtaining magnetic resonance imaging, the appropriate amounts of Gd-DTPA (a commercial contrast agent, Magnevist manufactured by Schering, Inc.), octa(1,4,7,10-tetraoxaundecyl)Gd-phthalocyanine (hereinafter referred to as GdPC-Fuxl-6) and octa(1,4,7,10-tetraoxaundecyl)Mn-phthalocyanine (hereinafter referred to as MnPC-Fuxl-18) were dissolved in 0.08% saline solution respectively, and the respective samples at concentration of 0.01M were used. This was in reference to the administration of commercial Gd-DTPA in human at 0.5M concentration under the condition of 0.4 ml/kg in 0.2 ml.
The above contrast agents of 0.01M concentration were administrated to mouse at 0.2 ml/10 g (female ICR, 27˜30 g, n=6). In the experiment, […], which is the maximum value in the acceptable range of the dose of the contrast agent, were injected to more clearly ascertain their effects. As for the blank for comparison purposes, the solution of 0.08% NaCl was administered. After the abdominal administration of the contrast agents, followed by a thirty-minute wait, the anesthetics (solution of a mixture of rompum, ketamin, and distilled water at 1.5:1.5:7) were injected thereto in order to sufficiently penetrate the contrast agents into the abdominal organs (the images of which were to be examined). […]

A short description of data set [5]: Wash-out time / retention time in blood and tissues. The following applies: in vivo. How it is done:
The retention time (in blood) of the complex compound of said structural formula (I) according to the present invention is within the clinically effective range. Whereas DTPA-Gd, which is a conventional contrast agent, has a wash-out time of approximately 30 minutes, the compound of said structural formula (I) of the present invention has a wash-out time (from the tissues) of approximately 1 hour and 30 minutes. […] Today, in using MR angiography, which has undergone significant advancement, a pulse sequence is required. However, the contrast agent of the present invention can contrast vessels without such pulse sequence while it is also useful as a diagnostic contrast agent for intravenous administration.

The conditions of data set [6]: washed out via urination; cited from earlier work.

Turning to “octa(1,4,7,10-tetraoxaundecyl)Gd-phthalocyanine [GdPC-Fuxl-6]”, the “degree of light absorption” value in data set [1] is on record as “superior characteristics with respect to light absorption”. Also, the “stability (no separation of Gd and Mn ions)” value in data set [2] is “stabilized for 24 hours”. In data set [3] (80 MHz NMR), the “T1 (degree of relaxation)” value was determined as 24.3 ms, the “T2 (degree of relaxation)” value was found to be 17.4 ms, the T1 was determined as 0.0243 s and the T2 came to 0.0174 s. In data set [3] (300 MHz NMR), this compound had a T1 of 0.0488 s and a T2 of 0.0234 s. Besides, the “contrast effects in T1 intensified images” value in data set [4] is given as “good contrast effects”.
For “octa(1,4,7,10-tetraoxaundecyl)Mn-phthalocyanine [MnPC-Fuxl-18]”, the “stability (no separation of Gd and Mn ions)” value in data set [2] is reported as “stabilized for 24 hours”. In data set [3] (80 MHz NMR), the “T1 (degree of relaxation)” value was determined as 191 ms, the “T2 (degree of relaxation)” value is listed as 33.5 ms, the T1 was 0.191 s and the T2 turned out to be 0.0335 s. In data set [3] (300 MHz NMR), the T1 came out at 0.317 s and the T2 amounted to 0.0207 s. Further, in data set [4], the “contrast effects in T1 intensified images” value was “good contrast effects”.
Take `O=C([O-])CN(CCN(CC(=O)[O-])CC(=O)[O-])CCN(CC(=O)[O-])CC(=O)[O-].[Gd+3]` [Gd-DTPA, complex of diethylenetriaminepentaactic acid (DTPA) and gadolinium (III), reference compound]: the wash-out time entry in data set [5] is on record as “approximately 30 minutes”. Besides, in data set [3] (80 MHz NMR), the T1 came to 0.0484 s and the T2 stood at 0.0441 s. In addition, in data set [3] (300 MHz NMR), the T1 is 0.0370 s and the T2 worked out at 0.261 s. Besides, the half-life period entry in data set [6] is given as “about 14 minutes”.
